Reference: patent US9309286B2, “Compositions and methods for augmenting permeability barriers” (TUFTS MEDICAL CENTER, priority 2011, dated 2016)
Peptide text beside a SMILES is read from it.

Experiments:
rats [1] = tested on: rats
rats [2] = assay: Evans Blue leak into lungs of rats after p38 inhibitor; conditions: 1 μmol/kg

SMILES	Lung weight/body weight, peptide alone (rats [1])	Leak of intravenously injected Evans Blue into lungs (rats [2])
C[C@H](NC(=O)[C@H](C)NC(=O)[C@@H]1CCCN1C(=O)[C@H](C)NC(=O)CNC(=O)[C@H](CCCNC(=N)N)NC(=O)[C@H](CCCNC(=N)N)NC(=O)[C@@H](NC(=O)CNC(=O)[C@@H]1CCCN1C(=O)[C@@H](NC(=O)[C@H](CCCNC(=N)N)NC(=O)[C@H](CCCNC(=N)N)NC(=O)[C@H](C)NC(=O)[C@@H]1CCCN1C(=O)[C@H](CC(N)=O)NC(=O)[C@H](CCCNC(=N)N)NC(=O)[C@@H]1CCCN1C(=O)[C@H](Cc1c[nH]cn1)NC(=O)[C@H](C)NC(=O)[C@H](CCCNC(=N)N)NC(=O)[C@H](C)NC(=O)[C@H](CCC(N)=O)NC(=O)[C@H](CCCNC(=N)N)NC(=O)[C@H](C)NC(=O)[C@H](C)NC(=O)[C@H](C)NC(=O)[C@H](CCCNC(=N)N)NC(=O)[C@H](C)NC(=O)[C@@H](N)Cc1ccc(O)cc1)[C@@H](C)O)[C@@H](C)O)C(N)=O [MK2-activating peptide] (H-YARAAARQARAHPRNPARRTPGTRRGAPAA-NH2)	no significant effect	–
C[S+]([O-])c1ccc(-c2nc(-c3ccncc3)c(-c3ccc(F)cc3)[nH]2)cc1 (centres unmarked) [SB203580]	–	increase in leak
